Peptide text beside a SMILES is read from it.
Tests used:
[1] = Bidirectional permeability and efflux in Caco-2 cells; assay type: in vitro ADME; conditions: human
Caco-2 cell monolayers = assay: as above; assay type: in vitro ADME
[2] = In vitro protein binding, rapid equilibrium dialysis; assay type: in vitro ADME; conditions: human, plasma
[3] = In vitro blood to plasma partitioning; assay type: in vitro ADME, dog
Plasma stability = assay type: in vitro ADME, human
SD rat hepatocytes = assay: Hepatocyte stability; assay type: in vitro ADME; conditions: 1.00 μM
beagle dog hepatocytes = assay: Hepatocyte stability; assay type: in vitro ADME; conditions: 1.00 μM
[4] = system: cynomolgus monkey hepatocytes; assay: Hepatocyte stability; assay type: in vitro ADME; conditions: 1.00 μM
human hepatocytes [5] = assay: Hepatocyte stability; assay type: in vitro ADME; conditions: 1.00 μM
[6] = Metabolite identification in liver microsomes; assay type: in vitro ADME; conditions: human liver microsomes, 10 μM, 37 °C, 120 min, NADPH
human hepatocytes [7] = assay: Metabolite identification in hepatocytes; assay type: in vitro ADME; conditions: cryopreserved human hepatocytes, FC-12738 10 μM, 37 °C, 240 min, LC-UV-MS
CYP2B6 = biological target: T1, CYP2B6 (Homo sapiens, UniProt P20813); assay: biochemical; assay type: in vitro ADME
T1 sequence (P20813 1-491): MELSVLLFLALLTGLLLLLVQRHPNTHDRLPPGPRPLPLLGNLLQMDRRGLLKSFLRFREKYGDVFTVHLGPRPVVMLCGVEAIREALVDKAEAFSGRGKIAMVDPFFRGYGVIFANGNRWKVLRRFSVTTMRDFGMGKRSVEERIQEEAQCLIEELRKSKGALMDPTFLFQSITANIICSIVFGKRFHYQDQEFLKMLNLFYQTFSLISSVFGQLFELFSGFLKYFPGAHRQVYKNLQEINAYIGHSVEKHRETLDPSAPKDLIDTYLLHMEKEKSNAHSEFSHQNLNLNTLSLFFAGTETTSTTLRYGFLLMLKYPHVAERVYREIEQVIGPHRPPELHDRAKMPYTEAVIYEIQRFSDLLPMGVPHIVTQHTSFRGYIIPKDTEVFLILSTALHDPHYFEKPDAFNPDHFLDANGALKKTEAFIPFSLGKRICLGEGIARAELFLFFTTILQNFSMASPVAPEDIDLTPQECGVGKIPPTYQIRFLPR

CYP2D6 = CYP2D6 (Homo sapiens, UniProt P10635); assay: CYP450 inhibition assay; assay type: in vitro ADME
CYP2C9 = CYP2C9 (Homo sapiens, UniProt P11712); assay: CYP time-dependent inhibition assay; assay type: in vitro ADME
CYP2C19 = CYP2C19 (Homo sapiens, UniProt P33261); assay: CYP time-dependent inhibition assay; assay type: in vitro ADME
CYP1A2 = assay type: in vitro ADME; conditions: cryopreserved human hepatocytes, three donors, 0.100 to 15.0 μM, 48 h, 37°C
human hepatocytes [8] = assay: Concentration change of FC-12738 in the CYP induction assay; assay type: in vitro ADME; conditions: 24 hours, 37°C
P-gp = P-gp (Homo sapiens, UniProt P08183); assay: Inhibition of P-gp in Caco-2 cells; assay type: in vitro ADME
OATP1B3 = OATP1B3 (Homo sapiens, UniProt Q9NPD5); assay: Transporter inhibition in HEK293 cells; assay type: in vitro ADME
[9] = 2.00 μM, with 10.0 μM GF120918, Caco-2, 120 min
[10] = 10.0 μM, with 10.0 μM GF120918, Caco-2, 120 min
[11] = 10.0 μM, without GF120918, Caco-2, 120 min
[12] = 100 μM, with 10.0 μM GF120918, Caco-2, 120 min
[13] = 100 μM, without GF120918, Caco-2, 120 min
[14] = cutoff IC50 shift >= 1.5-fold, 30 min pre-incubation ± NADPH

Chain of CYP2C9 (P11712 whole entry): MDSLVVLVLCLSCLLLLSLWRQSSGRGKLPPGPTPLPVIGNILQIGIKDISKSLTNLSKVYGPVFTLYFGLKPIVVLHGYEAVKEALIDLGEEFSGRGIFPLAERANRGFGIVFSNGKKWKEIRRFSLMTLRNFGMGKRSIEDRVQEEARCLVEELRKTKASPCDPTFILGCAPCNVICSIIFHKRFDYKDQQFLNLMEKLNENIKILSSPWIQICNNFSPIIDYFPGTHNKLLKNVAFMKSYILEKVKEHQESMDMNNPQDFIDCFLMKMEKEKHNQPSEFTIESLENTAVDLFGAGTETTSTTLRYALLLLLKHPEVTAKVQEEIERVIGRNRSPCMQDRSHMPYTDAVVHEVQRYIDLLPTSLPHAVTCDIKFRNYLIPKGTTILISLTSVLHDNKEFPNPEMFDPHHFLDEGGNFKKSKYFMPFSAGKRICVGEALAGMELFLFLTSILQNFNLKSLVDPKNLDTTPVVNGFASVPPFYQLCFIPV
Chain of CYP2C19 (P33261 whole entry): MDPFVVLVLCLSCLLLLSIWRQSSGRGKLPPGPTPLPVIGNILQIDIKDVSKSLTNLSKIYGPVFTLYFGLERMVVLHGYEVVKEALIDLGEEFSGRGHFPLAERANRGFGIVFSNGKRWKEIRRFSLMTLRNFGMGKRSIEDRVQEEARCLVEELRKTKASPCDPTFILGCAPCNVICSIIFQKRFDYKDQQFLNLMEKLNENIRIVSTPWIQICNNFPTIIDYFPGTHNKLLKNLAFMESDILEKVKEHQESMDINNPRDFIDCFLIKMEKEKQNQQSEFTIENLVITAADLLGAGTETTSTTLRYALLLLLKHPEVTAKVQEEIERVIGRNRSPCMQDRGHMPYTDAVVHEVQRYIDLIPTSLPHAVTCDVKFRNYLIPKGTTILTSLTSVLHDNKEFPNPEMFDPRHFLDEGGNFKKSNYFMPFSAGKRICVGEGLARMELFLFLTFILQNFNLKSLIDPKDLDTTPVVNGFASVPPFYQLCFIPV
Chain of OATP1B3 (Q9NPD5 whole entry): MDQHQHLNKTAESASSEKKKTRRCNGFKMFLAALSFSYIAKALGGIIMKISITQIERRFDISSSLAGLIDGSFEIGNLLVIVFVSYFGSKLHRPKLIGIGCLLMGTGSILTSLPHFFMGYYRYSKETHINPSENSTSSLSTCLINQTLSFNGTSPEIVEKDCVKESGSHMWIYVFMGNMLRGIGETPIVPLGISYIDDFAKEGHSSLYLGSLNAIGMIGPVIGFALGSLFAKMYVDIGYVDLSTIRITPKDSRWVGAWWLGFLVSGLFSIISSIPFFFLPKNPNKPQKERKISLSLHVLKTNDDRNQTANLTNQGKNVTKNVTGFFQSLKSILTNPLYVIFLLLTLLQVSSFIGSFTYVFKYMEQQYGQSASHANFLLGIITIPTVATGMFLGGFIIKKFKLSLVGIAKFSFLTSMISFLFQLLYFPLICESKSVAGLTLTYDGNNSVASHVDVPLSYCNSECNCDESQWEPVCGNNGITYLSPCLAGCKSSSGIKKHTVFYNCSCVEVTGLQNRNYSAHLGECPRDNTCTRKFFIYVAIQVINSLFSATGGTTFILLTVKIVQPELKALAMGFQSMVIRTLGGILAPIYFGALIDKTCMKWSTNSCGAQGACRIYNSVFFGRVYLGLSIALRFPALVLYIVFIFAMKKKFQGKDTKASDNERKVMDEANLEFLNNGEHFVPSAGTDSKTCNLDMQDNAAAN
Chain of CYP2D6 (P10635 whole entry): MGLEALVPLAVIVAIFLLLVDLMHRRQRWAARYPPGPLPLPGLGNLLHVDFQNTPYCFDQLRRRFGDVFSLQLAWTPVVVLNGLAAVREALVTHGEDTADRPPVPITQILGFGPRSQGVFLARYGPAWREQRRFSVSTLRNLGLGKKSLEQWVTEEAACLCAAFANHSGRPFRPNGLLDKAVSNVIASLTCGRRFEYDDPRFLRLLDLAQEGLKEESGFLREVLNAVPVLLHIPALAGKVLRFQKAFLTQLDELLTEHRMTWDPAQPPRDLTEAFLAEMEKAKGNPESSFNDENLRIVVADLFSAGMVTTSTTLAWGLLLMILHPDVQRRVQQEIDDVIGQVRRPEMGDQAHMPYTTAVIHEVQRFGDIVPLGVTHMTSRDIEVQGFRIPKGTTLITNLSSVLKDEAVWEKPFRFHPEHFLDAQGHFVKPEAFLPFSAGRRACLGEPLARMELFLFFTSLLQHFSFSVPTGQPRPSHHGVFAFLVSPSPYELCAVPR
Chain of P-gp (P08183 whole entry): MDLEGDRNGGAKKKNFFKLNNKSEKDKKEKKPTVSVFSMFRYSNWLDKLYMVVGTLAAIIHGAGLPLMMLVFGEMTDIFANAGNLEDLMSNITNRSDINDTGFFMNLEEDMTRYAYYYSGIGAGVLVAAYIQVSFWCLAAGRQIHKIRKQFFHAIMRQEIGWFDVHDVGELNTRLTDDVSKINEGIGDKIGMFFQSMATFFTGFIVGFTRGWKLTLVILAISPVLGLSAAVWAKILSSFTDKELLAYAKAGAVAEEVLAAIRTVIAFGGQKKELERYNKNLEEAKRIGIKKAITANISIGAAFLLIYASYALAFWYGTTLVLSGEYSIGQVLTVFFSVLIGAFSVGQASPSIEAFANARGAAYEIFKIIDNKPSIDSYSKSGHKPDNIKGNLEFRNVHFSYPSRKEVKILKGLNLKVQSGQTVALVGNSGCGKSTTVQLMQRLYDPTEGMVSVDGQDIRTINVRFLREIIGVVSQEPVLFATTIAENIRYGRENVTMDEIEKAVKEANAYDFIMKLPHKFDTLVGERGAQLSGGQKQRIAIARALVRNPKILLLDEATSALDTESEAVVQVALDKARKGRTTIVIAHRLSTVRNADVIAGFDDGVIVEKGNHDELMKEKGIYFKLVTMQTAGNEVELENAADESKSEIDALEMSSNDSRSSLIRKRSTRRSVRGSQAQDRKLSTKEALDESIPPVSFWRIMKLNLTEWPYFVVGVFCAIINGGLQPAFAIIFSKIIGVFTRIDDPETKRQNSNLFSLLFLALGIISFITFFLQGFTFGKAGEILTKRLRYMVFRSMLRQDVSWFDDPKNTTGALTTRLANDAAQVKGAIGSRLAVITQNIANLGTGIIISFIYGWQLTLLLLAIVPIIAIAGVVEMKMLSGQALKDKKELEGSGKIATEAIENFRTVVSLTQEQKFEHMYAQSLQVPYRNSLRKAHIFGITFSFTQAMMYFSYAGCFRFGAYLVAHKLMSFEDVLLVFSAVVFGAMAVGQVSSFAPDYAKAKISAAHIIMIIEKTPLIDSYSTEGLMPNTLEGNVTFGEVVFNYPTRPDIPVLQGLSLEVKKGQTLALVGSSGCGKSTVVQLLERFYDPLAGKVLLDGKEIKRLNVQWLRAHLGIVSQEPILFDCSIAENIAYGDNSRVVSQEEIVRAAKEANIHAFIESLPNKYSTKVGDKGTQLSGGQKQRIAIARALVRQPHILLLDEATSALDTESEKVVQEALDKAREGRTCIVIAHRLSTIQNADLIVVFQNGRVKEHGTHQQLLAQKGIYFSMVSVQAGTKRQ

Compound `CC(C)[C@@H](NC(=O)[C@H](N)Cc1ccc(O)cc1)C(=O)N[C@H](CC(=O)O)C(=O)N[C@H](CCCCN)C(=O)N[C@H](CCCNC(=N)N)C(=O)O` [FC-12738, (D-Tyr)-(D-Val)-(D-Asp)-(D-Lys)-(D-Arg)] (HELM PEPTIDE1{[dY].[dV].[dD].[dK].[dR]}$$$$V2.0) has an efflux ratio at 120 min, 10 μM ([1]; Caco-2) of 0.88, an efflux ratio at 120 min, 100 μM ([1]; Caco-2) of 1.24 and an efflux ratio at 120 min, 10 μM ([1]; Caco-2, with GF120918 10.0 μM) of 1.13. For the same compound, the “Mean %Solution Recovery A to B” value (Caco-2 cell monolayers; [9]) was <92.9%, the “Mean %Solution Recovery B to A” value (Caco-2 cell monolayers; [9]) was <96.5% and the “Mean %Solution Recovery A to B” value (Caco-2 cell monolayers; [10]) was 89.9%. For the same compound, the “Mean %Solution Recovery B to A” value (Caco-2 cell monolayers; [10]) was 96.5%, the “Mean %Solution Recovery A to B” value (Caco-2 cell monolayers; [11]) was 90.2% and the “Mean %Solution Recovery B to A” value (Caco-2 cell monolayers; [11]) was 100.5%. For the same compound, the “Efflux Ratio (ERi)” value (Caco-2 cell monolayers; [12]) was 1.23, the “Mean %Solution Recovery A to B” value (Caco-2 cell monolayers; [12]) was 86.9% and the “Mean %Solution Recovery B to A” value (Caco-2 cell monolayers; [12]) was 97.0%. The “Mean %Solution Recovery A to B” value (Caco-2 cell monolayers; [13]) was 89.1%, the “Mean %Solution Recovery B to A” value (Caco-2 cell monolayers; [13]) was 95.3% and the “Permeability across the Caco-2 cell monolayer (conclusion)” value (Caco-2 cell monolayers; 2.00, 10.0 and 100 μM) was “low permeable”. The fraction unbound at 6 h, 0.2 µM [2] was 0.428, the fraction unbound at 6 h, 2 µM [2] was 0.47 and the fraction unbound at 6 h, 10 µM [2] was 0.673. The “Mean erythrocyte to plasma ratio KE/P” value ([3]; dog whole blood, 0.200 μM, 37°C, 60 min) was < 0.18, the “Mean erythrocyte to plasma ratio KE/P” value ([3]; dog whole blood, 2.00 μM, 37°C, 60 min) was 0.07 and the “Mean erythrocyte to plasma ratio KE/P” value ([3]; dog whole blood, 10.0 μM, 37°C, 60 min) was < 0.14. The “Mean blood-to-plasma ratio KB/P” value ([3]; dog whole blood, 10.0 μM, 37°C, 60 min, LC-MS/MS) was 0.58, the tissue to tissue ratio at 1 h, 0.2 µM ([3]; dog, whole blood) was 0.57 and the tissue to tissue ratio at 1 h, 2 µM ([3]; dog, whole blood) was 0.55. The half-life (Plasma stability; human plasma, 2.00 μM, 37.0 °C, up to 120 min) was > 6.212 h, the remaining at 10 min, 2 μM (Plasma stability; human, plasma) was 93.3% and the remaining at 0.5 h, 2 μM (Plasma stability; human, plasma) was 93.6%. For the same compound, the remaining at 1 h, 2 μM (Plasma stability; human, plasma) was 90.6%, the remaining at 2 h, 2 μM (Plasma stability; human, plasma) was 85.6% and the “intrinsic clearance CLint(hep)” value (SD rat hepatocytes; cryopreserved SD rat hepatocytes, 37.0°C, 120 min) was < 1.9 μL/min/10^6 cells. The half-life (SD rat hepatocytes; cryopreserved SD rat hepatocytes, 37.0°C, 120 min, LC-MS/MS) was > 6.212 h, the “hepatic clearance CLint(liver)” value (SD rat hepatocytes; scaled from SD rat hepatocytes) was < 8.7 mL/min/kg and the “intrinsic clearance CLint(hep)” value (beagle dog hepatocytes; cryopreserved beagle dog hepatocytes, 37.0°C, 120 min) was < 1.9 μL/min/10^6 cells. The half-life (beagle dog hepatocytes; cryopreserved beagle dog hepatocytes, 37.0°C, 120 min, LC-MS/MS) was > 6.212 h, the “hepatic clearance CLint(liver)” value (beagle dog hepatocytes; scaled from beagle dog hepatocytes) was < 12.8 mL/min/kg and the “intrinsic clearance CLint(hep)” value ([4]; cryopreserved cynomolgus monkey hepatocytes, 37.0°C, 120 min) was < 1.9 μL/min/10^6 cells. For the same compound, the half-life ([4]; cryopreserved cynomolgus monkey hepatocytes, 37.0°C, 120 min, LC-MS/MS) was > 6.212 h, the “hepatic clearance CLint(liver)” value ([4]; scaled from cynomolgus monkey hepatocytes) was < 6.7 mL/min/kg and the “intrinsic clearance CLint(hep)” value (human hepatocytes [5]; cryopreserved human hepatocytes, 37.0°C, 120 min) was < 1.9 μL/min/10^6 cells. For the same compound, the half-life (human hepatocytes [5]; cryopreserved human hepatocytes, 37.0°C, 120 min, LC-MS/MS) was > 6.212 h, the “hepatic clearance CLint(liver)” value (human hepatocytes [5]; scaled from human hepatocytes) was < 5.2 mL/min/kg and the Metabolites detected [6] was “No metabolites of FC-12738 were detected”. For the same compound, the “Relative Abundance (MS Peak Area %Total)” value ([6]; LC-UV-MS) was 100.00%, the “Relative Abundance (UV%)” value (human hepatocytes [7]) was 91.82% and the IC50 (CYP2B6) was > 100 µM. For the same compound, the IC50 (CYP2D6) was > 100 µM, the IC50 (CYP2C9) was > 100 µM and the “Time-dependent inhibition of CYP2C9” value (CYP2C9; [14]) was “no time-dependent inhibition”. For the same compound, the IC50 (CYP2C19) was > 100 µM, the “Time-dependent inhibition of CYP2C19” value (CYP2C19; [14]) was “no time-dependent inhibition” and the “Induction of CYP1A2 (enzyme activity and gene expression)” value (CYP1A2) was “not considered as an inducer”. For the same compound, the “% remaining” value (human hepatocytes [8]; human hepatocytes Donor 1, 10.0 μM) was 69.1%, the “% remaining” value (human hepatocytes [8]; human hepatocytes Donor 2, 15.0 μM) was 89.3% and the “% remaining” value (human hepatocytes [8]; human hepatocytes Donor 3, 10.0 μM) was 61.0%. The IC50 (P-gp) was > 100 µM and the IC50 (OATP1B3) was > 100 µM.

Source: doi:10.1101/2023.04.18.537371v1 (bioRxiv, 2023)
